Patent publication US20220160867A1, “METHODS AND COMPOSITIONS COMPRISING CATIONIC LIPIDS FOR IMMUNOTHERAPY BY DIRECT TUMOR INJECTION” (PDS Biotechnology Corporation, priority 2020, published 2022)

Test system: HPV-positive TC-1 tumor cells
Test: TC-1 tumor model, tumor growth and survival after single treatment
Assay type: in vivo, B6 mice
Experimental: FIG. 1 provides a survival plot: B6 mice (n=4 per group) were implanted with 50,000 TC1 tumor cells subcutaneously. On day 10, group 2 received tumor vaccine R-DOTAP−HPV mix formulation (100 μl) (ASP3-250-HPV mix) containing HPV antigens (ASP3/R-DOTAP (S.C.) in the opposite flank of the tumor and group 3 mice received intra-tumoral injection of R-DOTAP (50 μl of 6 mg/ml) (RDOTAP (IT)).
Three groups of mice were injected on day 0 with 50,000 HPV-positive TC-1 tumor cells. In order for a stringent test of antitumor effect, the tumors were allowed to grow to a size of 6-7 mm prior to treatment on Day 10. The aggressively growing tumors reached a size of 10 mm by Day 14. Group 1 mice (Naïve) were left untreated and had to be sacrificed by Day 16. The mice in Group 2 (ASP3/R-DOTAP S.C.) were treated with one subcutaneous injection of R-DOTAP+HPV16(49-57) antigen injection on the opposite flank to the tumor. The mice in Group 3 (R-DOTAP IT) were treated with a single intra-tumoral injection of R-DOTAP only. The tumor sizes and survival of all 3 groups were monitored.
FIG. 1 provides a survival plot: B6 mice (n=4 per group) were implanted with 50,000 TC1 tumor cells subcutaneously.

`CCCCCCCC/C=C\CCCCCCCC(=O)OC[C@@H](C[N+](C)(C)C)OC(=O)CCCCCCC/C=C\CCCCCCCC` [R-DOTAP, (R)-1,2-dioleoyl-3-trimethylammonium propane] was tested, and the “antitumor efficacy (survival plot, FIG. 1)” value (intra-tumoral R-DOTAP only, 50 μl of 6 mg/ml, no antigen, compared with sub-cutaneous R-DOTAP+antigen) was “comparable antitumor efficacy” and the tumor growth rates (tumors 6-7 mm at single treatment on Day 10, data not shown) was “dramatic slowing of the tumor growth rates”.
